In PMC9000710, “Synthesis and Hemostatic Activity of New Amide Derivatives” (Molecules, 2022):

Columns and labels:
human blood plasma [1] = assay: Thrombin time (TT) clotting assay; format: biochemical
Protocol: (§1) Human blood plasma was isolated from fresh buffy coats (collected onto the citrate-dextrose solution—ACD) purchased from the Regional Centre of Blood Donation and Blood Treatment in Lodz, Poland. In the isolation procedure, the buffy coats (60 mL units) were divided into volumes of 10 mL and centrifuged (4000 rpm/15 min) in 15 mL tubes. Next, 1 mL solutions of each amide 1–8 were prepared in distilled water at concentrations of 10, 25, and 50 mg/L. Then, 450 μL of plasma and 50 μL of each amide at the tested concentrations were placed into 1.5 mL vials. The vials were vortexed (Vortex Biosan V-1 plus), incubated at 37 °C on a thermoblock (Dry Block Thermostat Biosan TDB-120), and analyzed using a Kselmed K-3002 OPTIC coagulometer (Grudziądz, Poland), based on the manufacturer’s protocols (described below). The control sample was native blood plasma, untreated with any of the examined substances.
Both 100 μL of control plasma and plasma samples treated with the amides were transferred to measuring cuvettes, which were placed in the thermoblock module (37 °C) of the coagulometer (KSELMED K-3002 Optic). Then, 100 μL of thrombin solution (4.5 U/mL, in 0.9% NaCl; Biomed, Lublin, Poland) was added to the cuvette. Measurements were started immediately.

[2] = Hemolysis assay (stability of erythrocytes); format: cell-based, human; details: male, human, heparinized whole blood diluted with saline (erythrocytes); for hemolysis at 45 min, 5 mg/L / hemolysis at 120 min, 5 mg/L / hemolysis at 240 min, 5 mg/L: c 5 mg/L; for hemolysis at 45 min, 50 mg/L / hemolysis at 120 min, 50 mg/L / hemolysis at 240 min, 50 mg/L: c 50 mg/L; for hemolysis at 45 min, 500 mg/L / hemolysis at 120 min, 500 mg/L / hemolysis at 240 min, 500 mg/L: c 500 mg/L
Protocol: Heparinized whole blood was used from a healthy volunteer. The whole blood (10 mL) was diluted with saline solution (90 mL). For each UV-Vis measurement, 2.5 mL of diluted blood was used. For each blood sample, 1 mL of a saline solution containing hydrochlorides 1–8 at concentrations of 5, 50, and 500 mg/L was added. As a control were used blood samples with the addition of 1% solution of DMSO in saline and 1% solution of SDS in saline. In all cases, the measurements were repeated twice for each concentration. […] The cells were centrifuged, and the absorbance of the supernatant, which contained plasma and lysed erythrocytes, was measured at 540 nm. The percentage of lysis was calculated from a standard curve of lysed erythrocytes treated with SDS [52].

human blood plasma [3] = assay: Clot formation and fibrinolysis (CFF) assay; format: biochemical; details: for Amax (maximum of fibrin clot absorbance at 360 nm) / VmaxC (of Fibrin Polymerization) / VmaxF (of Fibrin Clot Lysis): control plasma assumed as 100%, mean ± SD, n = 5–7
Text: The CFF assay enables analysis of both the blood plasma coagulation process and fibrinolysis efficiency. The thrombin enzyme in the reagent mixture initiates blood plasma fibrinogen polymerization, leading to an increase in absorbance in the sample until the maximal absorbance (Amax) is attained. The fibrinolytic activity of blood plasma is induced by the tissue-type plasminogen activator (t-PA). The activation of fibrinolysis in the tested samples leads to fibrin clot degradation and decreases the absorbance to the baseline.
Figure 11 An exemplary curve of blood plasma coagulation and clot lysis recorded during the clot formation and fibrinolysis (CFF) assay. The first step in the CFF test involves activation of the blood plasma coagulation cascade and fibrin clot formation (1). It is characterized by the maximal velocity of the fibrin polymerization parameter (VmaxC). The maximal absorbance (Amax) peak corresponds to the fibrin stabilization phase and is an indicator of fibrin clot thickness (2). The third step of the CFF assay covers the activation of fibrinolytic mechanisms and fibrin clot degradation (3) and is described by the maximal velocity of clot lysis (VmaxF).
Thrombin was purchased from BioMed (Lublin, Poland). A tissue-type plasminogen activator (Actilyse®) was purchased from Boehringer Ingelheim, Ingelheim am Rhein, Germany. Kinetic measurements were executed using a SpectrostarNano microplate spectrophotometer (BMG LabTech, Ortenberg, Germany).
Measurements were performed using a kinetic model, as described in our previous work. Briefly, blood plasma was preincubated with the examined substances (at final concentrations of 10, 25, and 50 mg/L) for 15 min at 37 °C. Then, 100 μL of blood plasma was added to microtiter plate wells, which was followed by 200 μL of the reagent mixture (0.75 U/mL thrombin, 225 ng/mL t-PA and 7.5 mM CaCl2) suspended in tris-buffered saline (0.05 M TBS, 0.9% NaCl; pH 7.4). Measurements of absorbance changes were started immediately and continued for 60 min at 37 °C, λ = 360 nm. The following parameters were used to determine the effects of the examined substances on the coagulation and fibrinolytic properties of the blood plasma: the maximal velocity of fibrinogen polymerization (VmaxC), which is an indicator of the plasma coagulation efficiency; the maximal absorbance (Amax), which is an indicator of the fibrin clot stabilization and its thickness; the maximal velocity of clot lysis (VmaxF), which is an indicator of blood plasma fibrinolytic activity.

human blood plasma [4] = assay: Activated partial thromboplastin time (aPTT) clotting assay; format: biochemical
Protocol: as §1
Fifty microliters of control plasma and plasma samples treated with the amides were transferred to measuring cuvettes and placed in the thermoblock module (37 °C) of the coagulometer (KSELMED, K-3002 Optic). Then, 50 μL of Dia-APTT reagent (DIAGON Kft. Hungary; cat. no. 72048) was added. The mixture was incubated for 180 s at 37 °C. Finally, 50 μL of reagent Dia-CaCl2 (DIAGON Kft. Hungary; cat. no. 41192) was added. Measurements were started immediately.

human blood plasma [5] = assay: Prothrombin time (PT) clotting assay; format: biochemical
Protocol: as §1
Fifty microliters of control plasma and plasma samples treated with the amides were transferred to measuring cuvettes and placed in the thermoblock module (37 °C) of a coagulometer (KSELMED, K-3002 Optic). Then, 100 μL of Dia-PT reagent (DIAGON Kft. Hungary; cat. no. 81100) was added. Measurements were started immediately.

Row | SMILES | TT Time [% of Control] (human blood plasma [1]; c 10 mg/L) | TT Time [% of Control] (human blood plasma [1]; c 25 mg/L) | TT Time [% of Control] (human blood plasma [1]; c 50 mg/L) | hemolysis at 45 min, 5 mg/L [2] | hemolysis at 120 min, 5 mg/L [2] | hemolysis at 240 min, 5 mg/L [2] | hemolysis at 45 min, 50 mg/L [2] | hemolysis at 120 min, 50 mg/L [2] | hemolysis at 240 min, 50 mg/L [2] | hemolysis at 45 min, 500 mg/L [2] | hemolysis at 120 min, 500 mg/L [2] | hemolysis at 240 min, 500 mg/L [2] | Amax (maximum of fibrin clot absorbance at 360 nm) (human blood plasma [3]; 10 mg/L) | VmaxC (of Fibrin Polymerization) (human blood plasma [3]; 10 mg/L) | VmaxF (of Fibrin Clot Lysis) (human blood plasma [3]; 10 mg/L) | Amax (maximum of fibrin clot absorbance at 360 nm) (human blood plasma [3]; 25 mg/L) | VmaxC (of Fibrin Polymerization) (human blood plasma [3]; 25 mg/L) | VmaxF (of Fibrin Clot Lysis) (human blood plasma [3]; 25 mg/L) | Amax (maximum of fibrin clot absorbance at 360 nm) (human blood plasma [3]; 50 mg/L) | VmaxC (of Fibrin Polymerization) (human blood plasma [3]; 50 mg/L) | other results
1 | Cl.NCCCCCC(=O)NCc1ccc(C(=O)O)cc1 [Amide 2, 4-((6-Aminohexanamido)methyl)benzoic acid hydrochloride] | 99.0 ± 1.8 % of Control | 98.9 ± 4.7 % of Control | 95.9 ± 6.8 % of Control | 0.41% | 0.21% | 0.65% | 0.11% | 0.74% | 0.3% | 1.03% | 0.21% | 0.43% | 105.29 ± 6.41% | 103.26 ± 3.98% | 75.81 ± 17.04 % | 110.74 ± 4.86 % | 106.30 ± 3.60 % | 79.60 ± 10.55 % | 110.77 ± 9.85 % | 105.59 ± 3.74 % | VmaxF (of Fibrin Clot Lysis) (human blood plasma [3]; 50 mg/L): 85.69 ± 8.80 %; effect on fibrin polymerization (VmaxC) in words (human blood plasma [3]; tested at 10, 25, 50 mg/L): Mild pro-coagulant effects; aPTT Time [% of Control] (human blood plasma [4]; c 10 mg/L): 98.5 ± 8.0 % of Control; aPTT Time [% of Control] (human blood plasma [4]; c 25 mg/L): 101.0 ± 13.1 % of Control; aPTT Time [% of Control] (human blood plasma [4]; c 50 mg/L): 101.9 ± 14.0 % of Control; melting point: 199 to 201 °C; PT Time [% of Control] (human blood plasma [5]; c 10 mg/L): 97.0 ± 4.8 % of Control; PT Time [% of Control] (human blood plasma [5]; c 25 mg/L): 96.1 ± 2.2 % of Control; PT Time [% of Control] (human blood plasma [5]; c 50 mg/L): 95.5 ± 2.5 % of Control; prothrombin time, effect versus control in words (human blood plasma [5]; two higher concentrations (25 and 50 mg/L)): significantly decreased
2 | Cl.NCC(=O)NCc1ccc(C(=O)O)cc1 [Amide 6, 4-((2-Aminoacetamido)methyl)benzoic acid hydrochloride] | 92.5 ± 3.0 % of Control | 92.3 ± 2.5 % of Control | 92.8 ± 4.2 % of Control | 0.38% | 0.56% | 0.19% | 0% | 0.11% | 0.2% | 0.41% | 0.68% | 0.31% | 105.45 ± 5.46% | 104.68 ± 3.05 % | 98.41 ± 14.71% | 102.41 ± 5.56% | 103.10 ± 6.82% | 100.06 ± 21.96% | 102.15 ± 2.46% | 101.11 ± 4.77% | TT, effect versus control in words (human blood plasma [1]; all used concentrations (10, 25, 50 mg/L)): shorter TT than the control sample; VmaxF (of Fibrin Clot Lysis) (human blood plasma [3]; 50 mg/L): 91.08 ± 15.49%; aPTT Time [% of Control] (human blood plasma [4]; c 10 mg/L): 96.1 ± 4.2 % of Control; aPTT Time [% of Control] (human blood plasma [4]; c 25 mg/L): 97.0 ± 3.5 % of Control; aPTT Time [% of Control] (human blood plasma [4]; c 50 mg/L): 98.3 ± 3.6 % of Control; melting point: 235 to 238 °C; PT Time [% of Control] (human blood plasma [5]; c 10 mg/L): 96.1 ± 4.4 % of Control; PT Time [% of Control] (human blood plasma [5]; c 25 mg/L): 95.8 ± 4.3 % of Control; PT Time [% of Control] (human blood plasma [5]; c 50 mg/L): 93.5 ± 7.1 % of Control
